The data set deals with GENE-TOX genotoxicity assays, various organisms and cells. The data set can be described thus: GENE-TOX mutagenicity studies. The following applies: for call: Assay Type: In vivo carcinogenicity studies.
Setting [1] is: Species/Cell Type: Bacillus subtilis (H17 vs M45), Assay Type: Rec-assay, spot test, DNA effects (bacterial DNA repair), Assay Code: REW-, Evaluation Type: Evaluation A (Pre-1980).
The mark [2] stands for this setting: Species/Cell Type: Human lymphocytes, Assay Type: Sister-chromatid exchange (SCE) in vitro, Assay Code: SCL+D, Dose Response: With dose response, Evaluation Type: Evaluation B (Post-1980).
The mark [3] stands for this setting: Species/Cell Type: Human, Assay Type: Sister-chromatid exchange (SCE) in vitro, Assay Code: SC1+D, Dose Response: With dose response, Evaluation Type: Evaluation B (Post-1980).
The mark [4] stands for this setting: Species/Cell Type: Nonhuman, Assay Type: Sister-chromatid exchange (SCE) in vitro, Assay Code: SC2+D, Dose Response: With dose response, Evaluation Type: Evaluation B (Post-1980).
[5] abbreviates: Species/Cell Type: Salmonella typhimurium (one or more of the five standard strains: TA98, TA100, TA1535, TA1537, and TA1538), Assay Type: Histidine reverse gene mutation, Ames assay, Assay Code: SALT, Evaluation Type: Evaluation A (Pre-1980).
The mark [6] stands for this setting: Species/Cell Type: Salmonella typhimurium (one or more of the five standard strains: TA98, TA100, TA1535, TA1537, and TA1538), Assay Type: Histidine reverse gene mutation, Ames assay, Assay Code: SAL+*, Activation: With metabolic activation, Evaluation Type: Evaluation A (Pre-1980).
Where [7] appears, read: Species/Cell Type: Salmonella typhimurium (one or more of the five standard strains: TA98, TA100, TA1535, TA1537, and TA1538), Assay Type: Histidine reverse gene mutation, Ames assay, Assay Code: SAL+, Evaluation Type: Evaluation A (Pre-1980).
Setting [8] is: Species/Cell Type: Nonhuman, Assay Code: CCG+, Evaluation Type: Evaluation A (Pre-1980).
Where [9] appears, read: Species/Cell Type: Mammalian polychromatic erythrocytes, Assay Type: Micronucleus test, chromosome aberrations, Assay Code: MNT+, Evaluation Type: Evaluation B (Post-1980).
[10] abbreviates: Species/Cell Type: Mammalian polychromatic erythrocytes, Assay Type: Micronucleus test, chromosome aberrations, Assay Code: MNT+, Evaluation Type: Evaluation A (Pre-1980).
Where [11] appears, read: Species/Cell Type: Nonhuman, Assay Type: Sister-chromatid exchange (SCE) in vivo, Assay Code: SC3+D, Dose Response: With dose response, Evaluation Type: Evaluation B (Post-1980).

Calls of active or inactive are those of the source. The rule behind the calls is not given here.

Regarding `[Cl][Ag]`, the mutagenic call under setting [1] was “inactive; negative”.

With `Cc1[nH]cnc1CSCCN=C(NC#N)N(C)N=O`, the mutagenic call under setting [2] was “active; positive”, the mutagenic call under setting [3] is “active; positive” and the mutagenic call under setting [4] was “active; positive”.

Take `CC(C)C(=O)Nc1ccc([N+](=O)[O-])c(C(F)(F)F)c1`: the mutagenic call (Species/Cell Type: Rodents, Sex: Male, Assay Type: Dominant lethal test, Assay Code: DLT-, Evaluation Type: Evaluation A (Pre-1980)) was “inactive; negative”.

Regarding `[Cl][Nb]([Cl])([Cl])([Cl])[Cl]`, under setting [1], the mutagenic call was “inactive; negative”.

Take `O=C1CN(CO)C(=O)CN1CO`: the mutagenic call (Species/Cell Type: Arabidopsis species, Assay Type: Gene mutation, Assay Code: ARM-, Evaluation Type: Evaluation A (Pre-1980)) is “inactive; negative”.

Regarding `CN=C(N)NC(=O)Nc1c(C)cccc1C`, the mutagenic call (Species/Cell Type: Mammalian polychromatic erythrocytes, Assay Type: Micronucleus test, chromosome aberrations, Assay Code: MNTT, Evaluation Type: Evaluation B (Post-1980)) is “no conclusion”.

In the case of `O=P(N1C2COCC21)(N1C2COCC21)N1C2COCC21` (centres undefined), the mutagenic call (Species/Cell Type: Drosophila melanogaster, Assay Type: Sex-linked recessive lethal gene mutation, Assay Code: SRL+, Evaluation Type: Evaluation A (Pre-1980)) was “active; positive”.

As to `O=S(=O)(Cl)c1cccc2cccnc12`, the mutagenic call under setting [5] is “no conclusion”.

Consider `Cc1c2ccccc2cc2c(F)cc3ccccc3c12`, for which the mutagenic call (Species/Cell Type: Mouse prostate cells, Assay Type: Cell transformation, Assay Code: CTM+, Evaluation Type: Evaluation A (Pre-1980)) was “active; positive”.

Turning to `CC(=O)Nc1nc(-c2cc([N+](=O)[O-])c[nH]2)cs1`, the mutagenic call under setting [5] is recorded as “no conclusion”.

Take `COc1cc2c(c3oc(=O)c4c(c13)[C@@H](O)CC4=O)[C@@H]1C=CO[C@@H]1O2`: the mutagenic call under setting [6] was “active; positive”.

Consider `O=[N+]([O-])c1ccc2ncccc2c1`, for which the mutagenic call under setting [7] was “active; positive”.

As to `O=c1[nH]cc(I)c(=O)[nH]1`, the mutagenic call (Species/Cell Type: Vicia faba, Assay Type: Chromosome aberrations, Assay Code: VIC+, Evaluation Type: Evaluation A (Pre-1980)) was “active; positive”.

Take `CCCCC(CC)COC(=O)c1ccccc1C(=O)OCC(CC)CCCC` (centres undefined): under setting [8], the call is “active; positive”. Besides, the mutagenic call by setting is: (Species/Cell Type: Nonhuman, Assay Type: Sister-chromatid exchange (SCE) in vitro, Assay Code: SC2T, Evaluation Type: Evaluation A (Pre-1980)) “no conclusion”; (Species/Cell Type: Rodents, Sex: Male, Assay Type: Dominant lethal test, Assay Code: DLT+, Evaluation Type: Evaluation A (Pre-1980)) “active; positive”.

Take `O=C1c2ccccc2C(=O)c2c1ccc(OCCCS(=O)(=O)O)c2O`: under setting [6], the mutagenic call was “active; positive”.

For the compound `CC(=O)Nc1ccc2c(c1)Cc1cc(NC(C)=O)ccc1-2`, the mutagenic call under setting [7] is “active; positive”.

With `O=c1c(O)c(-c2ccc(O)cc2)oc2cc(O)cc(O)c12`, the mutagenic call was “active; positive” under setting [9] and “active; positive” (Species/Cell Type: Nonhuman, Assay Type: Sister-chromatid exchange (SCE) in vitro, Assay Code: SC2+D*, Activation: With metabolic activation, Dose Response: With dose response, Evaluation Type: Evaluation B (Post-1980)).

Regarding `COc1ccc2nc3cc(Cl)ccc3c(NCCCNCCO)c2c1`, the mutagenic call is “inactive; negative” (Species/Cell Type: Chinese hamster ovary (CHO) cells, Assay Type: Forward gene mutation at the HPRT locus, Assay Code: CHO-, Evaluation Type: Evaluation A (Pre-1980)); “no conclusion” (Species/Cell Type: Chinese hamster ovary (CHO) cells, Assay Type: Forward gene mutation at the HPRT locus, Assay Code: CHOT, Evaluation Type: Evaluation B (Post-1980)); “no conclusion” under setting [5].

Consider `CCOC(=O)NO`, for which the mutagenic call (Species/Cell Type: Drosophila melanogaster, Assay Type: Sex-linked recessive lethal gene mutation, Assay Code: SRLT, Evaluation Type: Evaluation A (Pre-1980)) was “no conclusion”; the mutagenic call (Species/Cell Type: Escherichia coli polA (W3119 vs P3478), Assay Type: Rec-assay, DNA effects (bacterial DNA repair), Assay Code: RE1+, Evaluation Type: Evaluation A (Pre-1980)) was “active; positive”; the mutagenic call (Species/Cell Type: Human lymphocytes or leukocytes, Assay Type: Chromosome aberrations in vitro, Assay Code: CY7+, Evaluation Type: Evaluation A (Pre-1980)) was “active; positive”; the mutagenic call under setting [2] was “active; positive”; the mutagenic call under setting [3] is “active; positive”; the mutagenic call under setting [10] is “active; positive”. Besides, the mutagenic call was “active; positive” (Species/Cell Type: Mouse embryo (AKR/ME) cells, Assay Type: Cell transformation, Assay Code: CTK+, Evaluation Type: Evaluation A (Pre-1980)); “active; positive” under setting [4]; “active; positive” under setting [11]. The call (Species/Cell Type: Nonhuman, Assay Code: CCG+L, Evaluation Type: Evaluation A (Pre-1980)) is “active; positive”.

Turning to `CCCNC(=O)NS(=O)(=O)c1ccc(Cl)cc1`, the mutagenic call by setting is: (Species/Cell Type: Human lymphocytes, Assay Type: Sister-chromatid exchange (SCE) in vivo, Assay Code: SCY+, Evaluation Type: Evaluation B (Post-1980)) “active; positive”; under setting [10], “active; positive”; (Species/Cell Type: Nonhuman, Assay Type: Sister-chromatid exchange (SCE) in vitro, Assay Code: SC2+D, Dose Response: With dose response, Evaluation Type: Evaluation A (Pre-1980)) “active; positive”; under setting [11], “active; positive”.

For `Cc1cc(O)c2c(c1O)C(=O)c1cc(O)cc(O)c1C2=O`, the mutagenic call under setting [7] was “active; positive”.

As to `COc1cc2c(c(O)c1O)C(=O)c1c(O)cc(C)cc1C2=O`, the mutagenic call under setting [7] was “active; positive”.

As to `OOC1CCCc2ccccc21` (centres undefined), for the setting “Species/Cell Type: Saccharomyces cerevisiae, Assay Type: Mitotic recombination or gene conversion, Assay Code: YEC-, Evaluation Type: Evaluation A (Pre-1980)”, the mutagenic call was “inactive; negative”.

Take `[Cr]`: the call (Species/Cell Type: Nonhuman, Assay Code: CCGT, Evaluation Type: Evaluation A (Pre-1980)) is “no conclusion”.

For the compound `Nc1nc(/C=C/c2ccc([N+](=O)[O-])o2)no1`, the mutagenic call reads like this: (Species/Cell Type: Fischer rat embryo (RLV/1706) cells, Assay Type: Cell transformation, viral enhanced, Assay Code: CTR+, Evaluation Type: Evaluation A (Pre-1980)) “active; positive”; (Species/Cell Type: Neurospora crassa, Assay Type: Forward gene mutation, Assay Code: NEF+, Evaluation Type: Evaluation A (Pre-1980)) “active; positive”; (Species/Cell Type: Neurospora crassa, Assay Type: Reverse gene mutation, Assay Code: NER+, Evaluation Type: Evaluation A (Pre-1980)) “active; positive”; (Species/Cell Type: Saccharomyces cerevisiae, Assay Type: Mitotic recombination or gene conversion, Assay Code: YEC+, Evaluation Type: Evaluation A (Pre-1980)) “active; positive”; (Species/Cell Type: Saccharomyces cerevisiae, Assay Type: Mitotic recombination or gene conversion, Assay Code: YEH+, Evaluation Type: Evaluation A (Pre-1980)) “active; positive”; (Species/Cell Type: Saccharomyces cerevisiae, Assay Type: Reverse gene mutation, Assay Code: YER+, Evaluation Type: Evaluation A (Pre-1980)) “active; positive”.

For the compound `Oc1ccc(Cl)c(O)c1`, the mutagenic call (Species/Cell Type: Mammalian polychromatic erythrocytes, Assay Type: Micronucleus test, chromosome aberrations, Assay Code: MNTT, Evaluation Type: Evaluation A (Pre-1980)) is recorded as “no conclusion” and the mutagenic call (Species/Cell Type: Neurospora crassa, Assay Type: Aneuploidy, chromosome aberrations, Assay Code: NEN-, Evaluation Type: Evaluation A (Pre-1980)) was “inactive; negative”.

Take `O=P(OCCCl)(OCCCl)OCCCl`: the mutagenic call by setting is: under setting [9], “active; positive”; (Species/Cell Type: Salmonella typhimurium (one or more of the five standard strains: TA98, TA100, TA1535, TA1537, and TA1538), Assay Type: Histidine reverse gene mutation, Ames assay, Assay Code: SAL-, Evaluation Type: Evaluation A (Pre-1980)) “inactive; negative”.

Regarding `Clc1ccc(Cl)cc1`, the mutagenic call by setting is: (Species/Cell Type: Allium cepa, Assay Type: Chromosome aberrations, Assay Code: ALC+, Evaluation Type: Evaluation A (Pre-1980)) “active; positive”; under setting [9], “active; positive”.

With `CCN(CC)CC(O)CNc1c2ccc(Cl)cc2nc2ccc(OC)cc12` (centres undefined), under “Species/Cell Type: Mammalian polychromatic erythrocytes, Assay Type: Micronucleus test, chromosome aberrations, Assay Code: MNT+U, Dose Response: Unconfirmed positive response, Evaluation Type: Evaluation A (Pre-1980)”, the mutagenic call was “active; positive”.

Turning to `C#C[C@]1(O)CC[C@H]2[C@@H]3CCc4cc(OC)ccc4[C@H]3CC[C@@]21C` (tested in a mixture with another compound), the mutagenic call (Species/Cell Type: Human, Sex: Male, Assay Type: Sperm morphology, Assay Code: SPH+, Evaluation Type: Evaluation A (Pre-1980)) is “active; positive”.

Consider `C=C(Cl)CSC(=S)N(CC)CC`, for which, under setting [8], the call was “active; positive”. Besides, the mutagenic call under setting [6] was “active; positive”.

These data come from PubChem BioAssay AID1259408 (Genetic Toxicology Data Bank (GENE-TOX), 2018).
